13 molecules from patent US20100168105A1, “Spirocyclopropyl Piperidine Derivatives” (priority 2007, published 2010) can be followed below.

Test [1] has as its target T1, human Histamine H3 receptor (hH3R) (Homo sapiens, UniProt Q9Y5N1).
T1 construct: expressed in transfected cells; host or cells: CHO cells (membranes)
The experiment in a line: Guanosine 5'-O-(3-[35S]thio)triphosphate [GTPγS] Binding Assay. Type of test: biochemical. Particulars: antagonist activity; membranes from CHO cells expressing hH3R, (R)-α-methyl histamine 30 nM, [35S]GTPγS 0.2 nM, 90 minutes. As to the method:
Guanosine 5′-O-(3-[^35]thio)triphosphate [GTPγS] Binding Assay
The GTPγS binding assay can be used to investigate antagonist properties of compounds in CHO cells (Chinese Hamster Ovary) transfected with human Histamine H3 receptor (hH3R). […] To determine antagonist activity, (R)-α-methyl histamine (30 nM) is added in 96 well SPA plate with [^35S]GTPγS (0.2 nM) and various concentration of H3R antagonists. The GTPγS binding assay is started with addition of the mixture membrane/saponine/GDP and incubated for 90 minutes at room temperature. The amount of bound [^35S]GTPγS is determined by using the MicroBeta Trilux counter (PerkinElmer). The percentage of [^35S]GTPγS bound in each sample is calculated as a percentage of that bound control sample incubated in absence of H3 antagonist. Duplicate determinations are obtained for each concentration, and the data are analyzed using ExcelFit4 to obtain the IC50.

Test [2] deals with human histamine H3 receptors (full-length H3, isoform 445) (Homo sapiens, UniProt Q9Y5N1). To be noted: hH3 binding IC50 (nM), inhibition of 1.4 nM [3H]-N-α-methylhistamine binding to CHO-K1 membranes expressing human H3, SPA, 1.5 hr.
Sequence of human histamine H3 receptors (full-length H3, isoform 445) (Q9Y5N1 whole entry, canonical isoform): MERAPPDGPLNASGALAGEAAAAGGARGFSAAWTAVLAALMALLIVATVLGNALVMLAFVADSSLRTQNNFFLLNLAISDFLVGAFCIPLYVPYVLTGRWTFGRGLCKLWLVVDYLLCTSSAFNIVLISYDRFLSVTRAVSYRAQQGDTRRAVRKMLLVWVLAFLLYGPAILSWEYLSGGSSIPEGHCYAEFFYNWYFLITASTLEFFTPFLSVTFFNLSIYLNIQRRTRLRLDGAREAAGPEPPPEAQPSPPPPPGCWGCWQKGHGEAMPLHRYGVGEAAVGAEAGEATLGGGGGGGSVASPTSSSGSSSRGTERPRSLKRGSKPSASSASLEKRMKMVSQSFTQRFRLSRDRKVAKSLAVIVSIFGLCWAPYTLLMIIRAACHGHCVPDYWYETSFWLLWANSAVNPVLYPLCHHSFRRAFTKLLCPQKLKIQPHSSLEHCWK
Description: Histamine H3 SPA with the Agonist Radioligand [^3H]—N-α-methylhistamine
Reproducibility of the assay is such that IC50 curves can be generated in singlicate. Single poke (SP) testing was done in triplicate.
Membranes, prepared from CHO-K1 cells stably expressing the human histamine H3 receptor, were obtained from ACS.
Tested formula I compounds were provided as solubilized samples in neat DMSO. Serial dilutions were performed in DMSO.
Plates were read on a Perkin Elmer TopCount. CPM data were used to analyze unless DPM data generated by a quench curve were required.
• 1. 1 mg/ml BSA was added to assay buffer (AB) on day of assay. • 2. […] Buffer volume was split between beads and membranes to allow for polytroning of membranes prior to addition to beads. • a. […] Waited a minimum of 15 minutes prior to adding membranes (See b. below.). • b. […] The homogenized membrane mixture was combined with the beads and a minimum of 30 minutes was waited prior to dispensing to plate. • 3. Formula I compounds: For Single Poke, 2 μl 1 mM of a compound in accordance with formula I was dispensed to Optiplates (triplicate plates) for final concentration of 10 μM. […] Imetit (see below) was used as a control. • 4. […] 5 μl samples were calculated in quadruplicate on the β counter. […] (For IC50s, use final concentration on calculation tab of ABase template.)
• 1. […] 2 μl of the formula I compound dilution was mixed and then transferred into assay plates. DMSO was removed and 2 μl of 100 μM Imetit was added to the wells. • 3. 178 μl bead/membrane mixture was dispensed into the assay plate. • 4. 20 μl [^3H]-NAMH was added with Rapid Plate. The assay plate was sealed and incubated for 1.5 hr on RT shaker at speed ˜6.5. • 5. The assay plate was subsequently centrifuged at 1000 rpm for 10 minutes. • 6. The count was performed on TopCount using one of the 3H SPA H3 Quench programs.
The DPM data was analyzed when tSIS was less than that associated with 70% of full scale on the quench curve (tSIS<25%). Otherwise, CPM data was used.

T1 sequence (Q9Y5N1 whole entry): as the sequence (Q9Y5N1 whole entry, canonical isoform) above

Turning to `CN1CCN(C(=O)C2CC23CCN(C2CCOCC2)CC3)CC1` (centres unmarked) [Example 7, (4-Methyl-piperazin-1-yl)-[6-(tetrahydro-pyran-4-yl)-6-aza-spiro[2.5]oct-1-yl]-methasone], the values for the IC50 in test [1] and in test [2] were 1200 nM and 1400 nM, respectively.

As for `O=C(C1CC12CCN(c1ccncc1)CC2)N1CCN(C2CCCCC2)CC1` (centres unmarked) [Example 35, (4-Cyclohexyl-piperazin-1-yl)-(6-pyridin-4-yl-6-aza-spiro[2.5]oct-1-yl)-methanone], the IC50 was determined as 85.3 nM in test [1] and 165 nM in test [2].

Regarding `O=C(C1CC12CCN(C1CCOCC1)CC2)N1CCN(C2CCCCC2)CC1` (centres unmarked) [Example 1, (4-Cyclohexyl-piperazin-1-yl)-[6-(tetrahydro-pyran-4-yl)-6-aza-spiro[2.5]oct-1-yl]-methanone], the figures for the IC50 in test [1] and in test [2] were 13 nM and 33.6 nM, respectively.

On to `CN1CCC(N2CCC3(CC2)CC3C(=O)N2CCN(C3CCCCC3)CC2)CC1` (centres unmarked) [Example 20, (4-Cyclohexyl-piperazin-1-yl)-[6-(1-methyl-piperidin-4-yl)-6-aza-spiro[2.5]oct-1-yl]-methanone], for which the IC50 in test [1] amounted to 22.5 nM; in test [2], 97.2 nM.

For `CC(C)N1CCN(C(=O)C2CC23CCN(C2CCOCC2)CC3)CC1` (single isomer, unassigned) [Example 29, (4-Isopropyl-piperazin-1-yl)-[6-(tetrahydro-pyran-4-yl)-6-aza-spiro[2.5]oct-1-yl]-methanone], the results for the IC50 in test [1] and in test [2] were 87.5 nM and 50.9 nM, respectively.

Consider `O=C(C1CC12CCN(C1CCCCC1)CC2)N1CCN(C2CCC2)CC1` (centres unmarked) [Example 31, (4-Cyclobutyl-piperazin-1-yl)-(6-cyclohexyl-6-aza-spiro[2.5]oct-1-yl)-methanone], for which the figures for the IC50 in test [1] and in test [2] were 13.5 nM and 11.3 nM, respectively.

Consider `O=C(C1CC12CCN(C1CCCSC1)CC2)N1CCN(C2CCC2)CC1` (centres unmarked) [Example 30, (4-Cyclobutyl-piperazin-1-yl)-[6-(tetrahydro-thiopyran-3-yl)-6-aza-spiro[2.5]oct-1-yl]-methanone], for which the IC50 in test [1] came out at 14.3 nM; in test [2], 10.1 nM.

Turning to `O=C(C1CC12CCN(CCN1CCOCC1)CC2)N1CCN(C2CCC2)CC1` (centres unmarked) [Example 34, (4-Cyclobutyl-piperazin-1-yl)-[6-(2-morpholin-4-yl-ethyl)-6-aza-spiro[2.5]oct-1-yl]-methanone], the IC50 in test [1] turned out to be 13.5 nM; in test [2], 24.4 nM.

On to `O=C(C1CC12CCN(C1CCOCC1)CC2)N1CCN(c2ccncc2)CC1` (centres unmarked) [Example 14, (4-Pyridin-4-yl-piperazin-1-yl)-[6-(tetrahydro-pyran-4-yl)-6-aza-spiro[2.5]oct-1-yl]-methanone], for which the figures for the IC50 in test [1] and in test [2] were 139 nM and 26.1 nM, respectively.

On to `CC(C)N1CCN(C(=O)C2CC23CCN(C2CCOCC2)CC3)CC1` (single isomer, unassigned) [Example 28, (4-Isopropyl-piperazin-1-yl)-[6-(tetrahydro-pyran-4-yl)-6-aza-spiro[2.5]oct-1-yl]-methanone], for which the half-maximal inhibitory concentration (IC50) in test [1] is 13.2 nM; in test [2], 2.66 nM.

Take `O=C(C1CC12CCN(C1CCCCC1)CC2)N1CCN(C2CCC2)CC1` (single isomer, unassigned) [Example 27, (4-Cyclobutyl-piperazin-1-yl)-(6-cyclohexyl-6-aza-spiro[2.5]oct-1-yl)-methanone]: the IC50 was 44 nM in test [1] and 7.68 nM in test [2].

Take `O=C(C1CC12CCN(C1CCC1)CC2)N1CCN(C2CCOCC2)CC1` (centres unmarked) [Example 22, (6-Cyclobutyl-6-aza-spiro[2.5]oct-1-yl)-[4-(tetrahydro-pyran-4-yl)-piperazin-1-yl]-methanone]: the IC50 in test [1] came to 67 nM; in test [2], 209 nM.

Turning to `CC(C)N1CCC2(CC1)CC2C(=O)N1CCN(C2CCCCC2)CC1` (centres unmarked) [Example 21, (4-Cyclohexyl-piperazin-1-yl)-(6-isopropyl-6-aza-spiro[2.5]oct-1-yl)-methanone], the IC50 in test [1] came to 19.3 nM; in test [2] it was 141 nM.

The term IC50 denotes the concentration needed to halve the response being measured.
